Drawing on patent US6887876B2, “Benzamidine derivatives” (Ortho-McNeil Pharmaceutical, Inc., priority 2000, dated 2005), this text covers inhibition, Ki and inhibition in vivo for four compounds.

A word on the inhibition: it is the change of the read-out against control, counted positive when it falls. One may read the Ki as the equilibrium dissociation constant of an inhibitor or competing ligand from its target. The inhibition in vivo is the change of the read-out against control, counted positive when it falls. A high value points to strong suppression.

The target in experiment [1] is T1, δ-opioid receptor (Homo sapiens, UniProt P41143).
T1 construct: purchased Receptor Biology, Baltimore, Md; host or cells: CHO cells (membranes)
T1 sequence (P41143 whole entry): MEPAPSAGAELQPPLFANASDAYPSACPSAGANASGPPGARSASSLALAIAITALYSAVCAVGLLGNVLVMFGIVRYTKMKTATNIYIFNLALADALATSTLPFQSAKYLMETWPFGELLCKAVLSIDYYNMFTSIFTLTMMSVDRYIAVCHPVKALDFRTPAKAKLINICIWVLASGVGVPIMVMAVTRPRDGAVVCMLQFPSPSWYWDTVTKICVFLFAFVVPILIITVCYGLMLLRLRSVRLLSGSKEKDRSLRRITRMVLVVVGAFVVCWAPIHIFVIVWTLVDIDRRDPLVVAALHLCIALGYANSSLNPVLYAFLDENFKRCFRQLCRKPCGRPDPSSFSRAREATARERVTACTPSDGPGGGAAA
The experiment can be described thus: Scintillation screening assay for δ-opioid receptor binding ([3H]bremazocine). Particulars: cloned human receptor in CHO cell membranes, [3H]bremazocine 2.4 nM, read-out: δ-Opioid Receptor Binding (% Inhibition), % I @ 25 μM. The text has this:
Scintillation Screening Assay for δ-Opioid Receptor Binding
This is a receptor based screen to detect the competitive binding of test compounds at the δ-opioid receptor against the radioligand, [^3H]bremazocine (S.A.=25.5 Cl/mmol, Dupont/NEN, Cambridge, Mass.). Unknown compounds that bind to the same receptor as the radioligand will compete for the receptor and reduce the amount of radioligand which binds to the receptor. This is detected as a decreased scintillation signal from that particular incubation. The greater affinity an unknown has for the receptor, the larger the observed decrease in […] to the receptor; thus the assay is in the format of an inhibition study.
The receptor is a cloned human cDNA expressed in mammalian CHO cells. Membranes prepared from these cells are purchased from Receptor Biology, Baltimore, Md. The reaction buffer is composed as follows: HEPES (50 mM final), MgCl.6H2O (5 mM final), o-phenanthroline (20 mg/l), aprotinin (10 mg/l), Pefabloc SC (250 mg/l), leupeptin (0.5 mg/l), pepstatin A (0.7 mg/l), trypsin inhibitor (25 mg/l), chymostatin (10 mg/l), pH=7.2. Naloxone, 10 uM, is used to define non-specific binding. The assay employs filtration to capture receptor and bound ligand.
The receptor (membrane) preparation (28 ug protein) is allowed to incubate with the opioid receptor radioligand ([^3H]bremazocine, 2.4 nM) in 96-well plates until equilibrium is reached (>2 hr). Following incubation with the radioligand at 23° C., the well contents are filtered onto 96-well Whatman GF/C filter plates using a Packard cell harvester. Radioligand bound to the receptor also remains on the filter. The filters are rinsed three times with 0.5 mL of physiological saline (0.9% NaCl) to remove any unbound radioligand from the filter. Filters are dried and scintillation fluid is then added to the filters which emits light in proportion to the amount of radioactivity on the filter which is determined using an Packard Topcount scintillation counter. Data are reported as percent inhibition of control binding.

Experiment [2] deals with δ-opioid receptor (Rattus norvegicus, UniProt P33533). Put plainly: Rat brain δ-opioid receptor binding assay ([3H]DPDPE).
δ-opioid receptor (Rattus norvegicus, UniProt P33533), sequence (P33533 whole entry): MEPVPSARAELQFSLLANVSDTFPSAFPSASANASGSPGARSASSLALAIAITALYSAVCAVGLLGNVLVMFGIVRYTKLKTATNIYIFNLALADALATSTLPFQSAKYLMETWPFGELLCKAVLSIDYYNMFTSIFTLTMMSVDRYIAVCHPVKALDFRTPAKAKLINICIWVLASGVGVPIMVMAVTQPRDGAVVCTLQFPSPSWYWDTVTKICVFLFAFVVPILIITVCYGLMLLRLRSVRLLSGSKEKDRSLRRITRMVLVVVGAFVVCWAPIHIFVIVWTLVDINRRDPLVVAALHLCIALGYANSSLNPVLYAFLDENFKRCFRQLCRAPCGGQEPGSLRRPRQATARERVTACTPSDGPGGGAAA
The target of experiment [3] is μ-opioid receptor (Rattus norvegicus, UniProt P33535). The experiment can be described thus: Rat brain μ-opioid receptor binding assay ([3H]DAMGO).
μ-opioid receptor, sequence (P33535 whole entry): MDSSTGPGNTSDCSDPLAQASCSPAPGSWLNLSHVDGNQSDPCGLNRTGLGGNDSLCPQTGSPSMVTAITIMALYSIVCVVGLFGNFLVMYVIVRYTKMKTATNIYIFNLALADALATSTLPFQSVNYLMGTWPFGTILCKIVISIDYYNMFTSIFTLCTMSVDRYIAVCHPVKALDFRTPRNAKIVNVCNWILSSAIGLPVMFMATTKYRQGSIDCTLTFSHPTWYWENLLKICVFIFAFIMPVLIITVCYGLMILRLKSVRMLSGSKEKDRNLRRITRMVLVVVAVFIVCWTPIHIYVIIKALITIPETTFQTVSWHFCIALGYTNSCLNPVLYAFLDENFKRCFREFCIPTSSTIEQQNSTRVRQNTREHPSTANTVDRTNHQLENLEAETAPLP
In experiment [4] the test system is acetylcholine bromide-induced abdominal constriction response. Put plainly: Mouse acetylcholine bromide-induced abdominal constriction assay (MAIT). The class given is in vivo. Particulars: po, 0.5 h, 150 μmole/Kg p.o., acetylcholine bromide 5.5 mg/kg i.p. 30 min later. Here is the method:
The mouse acetylcholine-induced abdominal constriction assay, as described by Collier et al. in […]., 32: 295-310, 1968 with minor modifications, was used to assess analgesic potency of the compounds of formula (I). The test drugs or appropriate vehicles were administered orally (p.o.) and 30 min later the animal received an intraperitoneal (i.p.) injection of 5.5 mg/kg acetylcholine bromide (Matheson, Coleman and Bell, East Rutherford, N.J.). The mice were then placed in groups of three into glass bell jars and observed for a ten min observation period for the occurrence of an abdominal constriction response (defined as a wave of constriction and elongation passing caudally along the abdominal wall, accompanied by a twisting of the trunk and followed by extension of the hind limbs). For compounds of the present invention, the percent inhibition of this response to a nociceptive stimulus (equated to % analgesia) was calculated as follows: [formula]

Turning to `CCCN(CCC)C(=O)c1ccc(C(=Nc2cccc(F)c2)N2CCN(CC)CC2)cc1` [Compound 8, 4-[(4-ethyl-1-piperazinyl)[(3-fluorophenyl)imino]methyl]-N,N-dipropyl-benzamide], the inhibition at 25 µM in experiment [1] worked out at 97%. In addition, the results for the inhibition constant Ki in experiment [2] and in experiment [3] were 60.7 nM and 6890 nM, respectively. Moreover, the inhibition in vivo at 150 µmol/kg in experiment [4] is 7.1%.

For the compound `CCN1CCN(C(=Nc2cccc(Br)c2)c2ccc(C(=O)N(CC)CC)cc2)CC1` [Compound 4, 4-[[(3-bromophenyl)imino](4-ethyl-1-piperazinyl)methyl]-N,N-diethyl-benzamide], the inhibition at 25 µM in experiment [1] came to 100%. Further, the inhibitory constant (Ki) in experiment [2] was 57.6 nM; in experiment [3] it was greater than 10000 nM. The inhibition in vivo at 150 µmol/kg in experiment [4] was 7.7%.

Take `CCN1CCN(C(=Nc2ccccc2)c2ccc(C(=O)N(CC)CC)cc2)CC1` [Compound 1, N,N-diethyl-4-[(4-ethyl-1-piperazinyl)(phenylimino)methyl]-benzamide]: the inhibition at 25 µM in experiment [1] amounted to 106%. Moreover, the inhibition constant (Ki) in experiment [2] is 16 nM; in experiment [3], greater than 10000 nM. The inhibition in vivo at 150 µmol/kg in experiment [4] is 40%.

For the compound `CCN1CCN(C(=Nc2cccc(Cl)c2)c2ccc(C(=O)N(CC)CC)cc2)CC1` [Compound 3], the inhibition at 25 µM in experiment [1] is 103%. The values for the inhibition constant Ki in experiment [2] and in experiment [3] were 62.6 nM and greater than 10000 nM, respectively. In experiment [4], the inhibition in vivo at 150 µmol/kg is 40%.
